Experiments:
Tribolium castaneum [1] = test: Antifeedant activity against adult of Tribolium castaneum (red flour beetle) assessed as mortality at 100 ppm after 3 days relative to control; format: functional; conditions: 72 h
Tribolium castaneum [2] = test: Antifeedant activity against adult of Tribolium castaneum (red flour beetle) assessed as mortality at 10 ppm after 3 days relative to control; format: functional; conditions: 72 h
Sitophilus zeamais [3] = test: Antifeedant activity against adult of Sitophilus zeamais assessed as mortality at 300 ppm after 3 days relative to control; format: functional; conditions: 72 h
Tribolium castaneum [4] = test: Antifeedant activity against adult of Tribolium castaneum (red flour beetle) assessed as mortality at 3 ppm after 3 days relative to control; format: functional; conditions: 72 h
Sitophilus zeamais [5] = test: Antifeedant activity against adult of Sitophilus zeamais assessed as mortality at 100 ppm after 3 days relative to control; format: functional; conditions: 72 h
Sitophilus zeamais [6] = test: Antifeedant activity against adult of Sitophilus zeamais assessed as mortality at 10 ppm after 3 days relative to control; format: functional; conditions: 72 h
Tribolium castaneum [7] = test: Antifeedant activity against larvae of Tribolium castaneum (red flour beetle) assessed as mortality at 300 ppm after 3 days relative to control; format: functional; conditions: 72 h
Tribolium castaneum [8] = test: Antifeedant activity against larvae of Tribolium castaneum (red flour beetle) assessed as mortality at 30 ppm after 3 days relative to control; format: functional; conditions: 72 h
Tribolium castaneum [9] = test: Antifeedant activity against larvae of Tribolium castaneum (red flour beetle) assessed as mortality at 3 ppm after 3 days relative to control; format: functional; conditions: 72 h
Tribolium castaneum [10] = test: Antifeedant activity against larvae of Tribolium castaneum (red flour beetle) assessed as mortality at 10 ppm after 3 days relative to control; format: functional; conditions: 72 h
Tribolium castaneum [11] = test: Antifeedant activity against adult of Tribolium castaneum (red flour beetle) assessed as mortality at 30 ppm after 3 days relative to control; format: functional; conditions: 72 h
Sitophilus zeamais [12] = test: Antifeedant activity against adult of Sitophilus zeamais assessed as mortality at 30 ppm after 3 days relative to control; format: functional; conditions: 72 h
Sitophilus zeamais [13] = test: Antifeedant activity against adult of Sitophilus zeamais assessed as mortality at 3 ppm after 3 days relative to control; format: functional; conditions: 72 h
Tribolium castaneum [14] = test: Antifeedant activity against larvae of Tribolium castaneum (red flour beetle) assessed as efficiency of conversion of ingested food at 100 ppm after 3 days relative to control; format: functional, Instar larval stage
Tribolium castaneum [15] = test: Antifeedant activity against larvae of Tribolium castaneum (red flour beetle) assessed as efficiency of conversion of ingested food at 30 ppm after 3 days relative to control; format: functional, Instar larval stage
Tribolium castaneum [16] = test: Antifeedant activity against larvae of Tribolium castaneum (red flour beetle) assessed as efficiency of conversion of ingested food at 10 ppm after 3 days relative to control; format: functional, Instar larval stage
Tribolium castaneum [17] = test: Antifeedant activity against larvae of Tribolium castaneum (red flour beetle) assessed as efficiency of conversion of ingested food at 3 ppm after 3 days relative to control; format: functional
Tribolium castaneum [18] = test: Antifeedant activity against larvae of Tribolium castaneum (red flour beetle) assessed as feeding deterrence index at 300 ppm after 3 days relative to control; format: functional
Tribolium castaneum [19] = test: Antifeedant activity against larvae of Tribolium castaneum (red flour beetle) assessed as feeding deterrence index at 30 ppm after 3 days relative to control; format: functional
Tribolium castaneum [20] = test: Antifeedant activity against larvae of Tribolium castaneum (red flour beetle) assessed as feeding deterrence index at 3 ppm after 3 days relative to control; format: functional
Tribolium castaneum [21] = test: Antifeedant activity against adult of Tribolium castaneum (red flour beetle) assessed as feeding deterrence index at 300 ppm after 3 days relative to control; format: functional
Tribolium castaneum [22] = test: Antifeedant activity against adult of Tribolium castaneum (red flour beetle) assessed as feeding deterrence index at 30 ppm after 3 days relative to control; format: functional
Tribolium castaneum [23] = test: Antifeedant activity against adult of Tribolium castaneum (red flour beetle) assessed as feeding deterrence index at 10 ppm after 3 days relative to control; format: functional
Tribolium castaneum [24] = test: Antifeedant activity against adult of Tribolium castaneum (red flour beetle) assessed as feeding deterrence index at 3 ppm after 3 days relative to control; format: functional
Sitophilus zeamais [25] = test: Antifeedant activity against adult of Sitophilus zeamais assessed as feeding deterrence index at 100 ppm after 3 days relative to control; format: functional
Sitophilus zeamais [26] = test: Antifeedant activity against adult of Sitophilus zeamais assessed as feeding deterrence index at 10 ppm after 3 days relative to control; format: functional
Tribolium castaneum [27] = test: Antifeedant activity against adult of Tribolium castaneum (red flour beetle) assessed as relative growth rate at 300 ppm after 3 days relative to control; format: functional
Sitophilus zeamais [28] = test: Antifeedant activity against adult of Sitophilus zeamais assessed as relative growth rate at 3 ppm after 3 days relative to control; format: functional
Sitophilus zeamais [29] = test: Antifeedant activity against adult of Sitophilus zeamais assessed as relative growth rate at 30 ppm after 3 days relative to control; format: functional
Sitophilus zeamais [30] = test: Antifeedant activity against adult of Sitophilus zeamais assessed as relative growth rate at 100 ppm after 3 days relative to control; format: functional
Tribolium castaneum [31] = test: Antifeedant activity against adult of Tribolium castaneum (red flour beetle) assessed as relative growth rate at 10 ppm after 3 days relative to control; format: functional
Tribolium castaneum [32] = test: Antifeedant activity against adult of Tribolium castaneum (red flour beetle) assessed as efficiency of conversion of ingested food at 100 ppm after 3 days relative to control; format: functional
Tribolium castaneum [33] = test: Antifeedant activity against adult of Tribolium castaneum (red flour beetle) assessed as efficiency of conversion of ingested food at 30 ppm after 3 days relative to control; format: functional
Tribolium castaneum [34] = test: Antifeedant activity against adult of Tribolium castaneum (red flour beetle) assessed as efficiency of conversion of ingested food at 10 ppm after 3 days relative to control; format: functional
Tribolium castaneum [35] = test: Antifeedant activity against adult of Tribolium castaneum (red flour beetle) assessed as efficiency of conversion of ingested food at 3 ppm after 3 days relative to control; format: functional
Sitophilus zeamais [36] = test: Antifeedant activity against adult of Sitophilus zeamais assessed as efficiency of conversion of ingested food at 300 ppm after 3 days relative to control; format: functional
Sitophilus zeamais [37] = test: Antifeedant activity against adult of Sitophilus zeamais assessed as efficiency of conversion of ingested food at 10 ppm after 3 days relative to control; format: functional
Tribolium castaneum [38] = test: Antifeedant activity against larvae of Tribolium castaneum (red flour beetle) assessed as relative consumption rate at 100 ppm after 3 days relative to control; format: functional
Tribolium castaneum [39] = test: Antifeedant activity against larvae of Tribolium castaneum (red flour beetle) assessed as relative consumption rate at 3 ppm after 3 days relative to control; format: functional
Tribolium castaneum [40] = test: Antifeedant activity against larvae of Tribolium castaneum (red flour beetle) assessed as relative consumption rate at 10 ppm after 3 days relative to control; format: functional
Tribolium castaneum [41] = test: Antifeedant activity against adult of Tribolium castaneum (red flour beetle) assessed as relative consumption rate at 300 ppm after 3 days relative to control; format: functional
Tribolium castaneum [42] = test: Antifeedant activity against adult of Tribolium castaneum (red flour beetle) assessed as relative consumption rate at 30 ppm after 3 days relative to control; format: functional
Sitophilus zeamais [43] = test: Antifeedant activity against adult of Sitophilus zeamais assessed as relative consumption rate at 30 ppm after 3 days relative to control; format: functional
Sitophilus zeamais [44] = test: Antifeedant activity against adult of Sitophilus zeamais assessed as relative consumption rate at 100 ppm after 3 days relative to control; format: functional
Sitophilus zeamais [45] = test: Antifeedant activity against adult of Sitophilus zeamais assessed as relative consumption rate at 3 ppm after 3 days relative to control; format: functional
Tribolium castaneum [46] = test: Antifeedant activity against larvae of Tribolium castaneum (red flour beetle) assessed as relative growth rate at 10 ppm after 3 days relative to control; format: functional
Tribolium castaneum [47] = test: Antifeedant activity against adult of Tribolium castaneum (red flour beetle) assessed as relative growth rate at 100 ppm after 3 days relative to control; format: functional

`COc1c2ccccc2nc2occc12` [DICTAMNINE] gave a mortality at 100 ppm (Tribolium castaneum [1]) of 0%, a mortality at 10 ppm (Tribolium castaneum [2]) of 0% and a mortality at 300 ppm (Sitophilus zeamais [3]) of 0%. For the same compound, the mortality at 3 ppm (Tribolium castaneum [4]) was 0%, the mortality at 100 ppm (Sitophilus zeamais [5]) was 0% and the mortality at 10 ppm (Sitophilus zeamais [6]) was 0%. The mortality at 300 ppm (Tribolium castaneum [7]) was 4%, the mortality at 30 ppm (Tribolium castaneum [8]) was 0% and the mortality at 3 ppm (Tribolium castaneum [9]) was 0%. The mortality at 10 ppm (Tribolium castaneum [10]) was 0%, the mortality at 30 ppm (Tribolium castaneum [11]) was 0% and the mortality at 30 ppm (Sitophilus zeamais [12]) was 0%. For the same compound, the mortality at 3 ppm (Sitophilus zeamais [13]) was 0%, the Activity (Tribolium castaneum [14]) was 17.43% and the Activity (Tribolium castaneum [15]) was 20.53%. It also gave an Activity (Tribolium castaneum [16]) of 18.07%, an Activity (Tribolium castaneum [17]) of 19.8% and an FDI (Tribolium castaneum [18]) of 82.21%. For the same compound, the FDI (Tribolium castaneum [19]) was 38.52%, the FDI (Tribolium castaneum [20]) was 4.59% and the FDI (Tribolium castaneum [21]) was 81.24%. It also gave an FDI (Tribolium castaneum [22]) of 32.38%, an FDI (Tribolium castaneum [23]) of 17.06% and an FDI (Tribolium castaneum [24]) of 7.31%. The FDI (Sitophilus zeamais [25]) was 51.77%, the FDI (Sitophilus zeamais [26]) was 17.87% and the Activity (Tribolium castaneum [27]) was 6.45 µg/mg/day. For the same compound, the Activity (Sitophilus zeamais [28]) was 15.71 µg/mg/day, the Activity (Sitophilus zeamais [29]) was 12.08 µg/mg/day and the Activity (Sitophilus zeamais [30]) was 9.49 µg/mg/day. It also gave an Activity (Tribolium castaneum [31]) of 27.3 µg/mg/day, an Activity (Tribolium castaneum [32]) of 17.88% and an Activity (Tribolium castaneum [33]) of 18.35%. The Activity (Tribolium castaneum [34]) was 19.91%, the Activity (Tribolium castaneum [35]) was 21.25% and the Activity (Sitophilus zeamais [36]) was 6.81%. The Activity (Sitophilus zeamais [37]) was 10.42%, the Activity (Tribolium castaneum [38]) was 123.74 µg/mg/day and the Activity (Tribolium castaneum [39]) was 254.2 µg/mg/day. It also gave an Activity (Tribolium castaneum [40]) of 213.17 µg/mg/day, an Activity (Tribolium castaneum [41]) of 22.21 µg/mg/day and an Activity (Tribolium castaneum [42]) of 101.27 µg/mg/day. The Activity (Sitophilus zeamais [43]) was 86.75 µg/mg/day, the Activity (Sitophilus zeamais [44]) was 52.65 µg/mg/day and the Activity (Sitophilus zeamais [45]) was 126.78 µg/mg/day. The Activity (Tribolium castaneum [46]) was 47.56 µg/mg/day and the Activity (Tribolium castaneum [47]) was 13.49 µg/mg/day.
`CC1=C2C(=O)O[C@@H](c3ccoc3)[C@]2(C)CCC1` [FRAXINELLONE] showed a mortality at 100 ppm (Tribolium castaneum [1]) of 0%, a mortality at 10 ppm (Tribolium castaneum [2]) of 0% and a mortality at 300 ppm (Sitophilus zeamais [3]) of 4%. It also gave a mortality at 3 ppm (Tribolium castaneum [4]) of 0%, a mortality at 100 ppm (Sitophilus zeamais [5]) of 0% and a mortality at 10 ppm (Sitophilus zeamais [6]) of 0%. The mortality at 300 ppm (Tribolium castaneum [7]) was 12%, the mortality at 30 ppm (Tribolium castaneum [8]) was 0% and the mortality at 3 ppm (Tribolium castaneum [9]) was 0%. It also gave a mortality at 10 ppm (Tribolium castaneum [10]) of 0%, a mortality at 30 ppm (Tribolium castaneum [11]) of 0% and a mortality at 30 ppm (Sitophilus zeamais [12]) of 2%. For the same compound, the mortality at 3 ppm (Sitophilus zeamais [13]) was 0%, the Activity (Tribolium castaneum [14]) was 13.65% and the Activity (Tribolium castaneum [15]) was 17.81%. The Activity (Tribolium castaneum [16]) was 20.9%, the Activity (Tribolium castaneum [17]) was 22.62% and the FDI (Tribolium castaneum [18]) was 95.68%. The FDI (Tribolium castaneum [19]) was 50.33%, the FDI (Tribolium castaneum [20]) was 11.65% and the FDI (Tribolium castaneum [21]) was 95.05%. It also gave an FDI (Tribolium castaneum [22]) of 40.07%, an FDI (Tribolium castaneum [23]) of 18.64% and an FDI (Tribolium castaneum [24]) of 8.46%. It also gave an FDI (Sitophilus zeamais [25]) of 54.09%, an FDI (Sitophilus zeamais [26]) of 15.68% and an Activity (Tribolium castaneum [27]) of 1.48 µg/mg/day. The Activity (Sitophilus zeamais [28]) was 15.22 µg/mg/day, the Activity (Sitophilus zeamais [29]) was 10.06 µg/mg/day and the Activity (Sitophilus zeamais [30]) was 7.05 µg/mg/day. The Activity (Tribolium castaneum [31]) was 23.64 µg/mg/day, the Activity (Tribolium castaneum [32]) was 17.57% and the Activity (Tribolium castaneum [33]) was 19.1%. For the same compound, the Activity (Tribolium castaneum [34]) was 21.98%, the Activity (Tribolium castaneum [35]) was 21.68% and the Activity (Sitophilus zeamais [36]) was 6.56%. The Activity (Sitophilus zeamais [37]) was 11.25%, the Activity (Tribolium castaneum [38]) was 127.99 µg/mg/day and the Activity (Tribolium castaneum [39]) was 233.06 µg/mg/day. For the same compound, the Activity (Tribolium castaneum [40]) was 198.13 µg/mg/day, the Activity (Tribolium castaneum [41]) was 7.39 µg/mg/day and the Activity (Tribolium castaneum [42]) was 83.91 µg/mg/day. For the same compound, the Activity (Sitophilus zeamais [43]) was 113.45 µg/mg/day, the Activity (Sitophilus zeamais [44]) was 79.29 µg/mg/day and the Activity (Sitophilus zeamais [45]) was 133.85 µg/mg/day. The Activity (Tribolium castaneum [46]) was 41.3 µg/mg/day and the Activity (Tribolium castaneum [47]) was 9.41 µg/mg/day.
